According to the supplement of paper PMC10307832:

Compound: Cc1cnc(CNC(=O)c2c(=O)c3ccc(N4CCCN(C)CC4)nc3n3c2sc2ccccc23)cn1 [CX-5461] + CS(=O)(=O)CCNCc1ccc(-c2ccc3ncnc(Nc4ccc(OCc5cccc(F)c5)c(Cl)c4)c3c2)o1 [Lapatinib] (partner 2 µM)
Assay: relative viability (nuclei count vs DMSO), 5 days (fraction); higher = more cells survive
Conditions: first compound 0.01 µM
Method in brief: (§1)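 Relative viability divides the nuclei count in treated wells by that in vehicle wells. Lung cancer cell lines were seeded in 1536-well plates, dosed by pin tool the next day, and fixed and stained after 5 days in one step with final 0.05% Triton X-100, 1% formaldehyde and 1 ug/ml Hoechst. Dosing was a single drug or a fixed anchor-drug dose plus five library-drug doses (not always all listed) in √10 steps, and values are medians of duplicate plates imaged at 4×.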

In order of rising relative viability:
1. HCC-827  0.198
2. EKVX  0.228
3. PC-14  0.328
4. NCI-H661  0.382
5. NCI-H322M  0.552
6. CAL-12T  0.697
7. NCI-H1944  0.777
8. NCI-H1437  0.779
9. NCI-H2023  0.788
10. HCC-15  0.886
11. LXF-289  0.897
12. NCI-H2009  0.906
13. NCI-H1792  0.919
14. EPLC-272H  0.936
15. NCI-H2347  0.941
16. 201T  1.01
17. NCI-H1915  1.01
18. NCI-H3122  1.01
19. NCI-H1355  1.03
20. NCI-H1755  1.05
21. A-427  1.06
22. NCI-H1734  1.08
23. NCI-H2228  1.13
24. NCI-H23  1.15
25. LCLC-97TM1  1.17
26. NCI-H460  1.17
27. SW 1573  1.2
28. NCI-H647  1.24

Same assay, conditions: first compound 0.03162 µM

In order of rising relative viability:
1. EKVX  0.206
2. HCC-827  0.223
3. PC-14  0.457
4. NCI-H1651  0.482
5. NCI-H661  0.533
6. NCI-H322M  0.564
7. BEN  0.647
8. CAL-12T  0.673
9. NCI-H2228  0.764
10. NCI-H2023  0.794
11. NCI-H1437  0.869
12. HCC-15  0.914
13. HCC-78  0.916
14. HARA  0.921
15. NCI-H2347  0.931
16. LXF-289  0.936
17. NCI-H1355  0.976
18. NCI-H1944  0.981
19. NCI-H3122  0.992
20. A-427  0.999
21. LU99A  1.02
22. LCLC-97TM1  1.02
23. NCI-H1755  1.03
24. NCI-H2009  1.04
25. 201T  1.06
26. NCI-H1915  1.06
27. NCI-H1792  1.08
28. NCI-H647  1.1
29. NCI-H460  1.11
30. NCI-H1734  1.12
31. EPLC-272H  1.12
32. NCI-H23  1.19
33. SW 1573  1.26

Same assay, conditions: first compound 0.1 µM

In order of rising relative viability:
1. EKVX  0.196
2. HCC-827  0.22
3. NCI-H460  0.23
4. PC-14  0.304
5. NCI-H2228  0.473
6. CAL-12T  0.486
7. NCI-H2009  0.584
8. NCI-H661  0.611
9. NCI-H322M  0.644
10. HCC-78  0.734
11. NCI-H1944  0.806
12. NCI-H23  0.82
13. BEN  0.821
14. HARA  0.84
15. LU99A  0.86
16. HCC-15  0.869
17. LCLC-97TM1  0.871
18. NCI-H3122  0.897
19. EPLC-272H  0.9
20. NCI-H1792  0.923
21. LXF-289  0.947
22. NCI-H1734  0.951
23. NCI-H2347  0.963
24. SW 1573  0.989
25. NCI-H1915  0.99
26. NCI-H647  1.01
27. 201T  1.03
28. A-427  1.04
29. NCI-H1755  1.06
30. NCI-H1355  1.15

Same assay, conditions: first compound 0.3162 µM

In order of falling relative viability:
1. NCI-H3122  1
2. NCI-H647  0.949
3. HARA  0.861
4. NCI-H1792  0.85
5. 201T  0.82
6. NCI-H1651  0.714
7. SW 1573  0.691
8. NCI-H2228  0.668
9. LXF-289  0.602
10. LU99A  0.56
11. NCI-H1734  0.553
12. NCI-H1755  0.531
13. NCI-H2347  0.524
14. NCI-H1437  0.519
15. BEN  0.487
16. NCI-H2009  0.39
17. NCI-H1915  0.379
18. NCI-H1355  0.293
19. NCI-H23  0.266
20. HCC-15  0.264
21. CAL-12T  0.247
22. HCC-78  0.244
23. HCC-827  0.203
24. NCI-H2023  0.143
25. PC-14  0.104
26. NCI-H460  0.0503

Same assay, conditions: first compound 1 µM

In order of rising relative viability:
1. NCI-H460  0.0174
2. NCI-H2023  0.106
3. NCI-H1651  0.117
4. NCI-H2228  0.166
5. HCC-827  0.19
6. EKVX  0.198
7. LU99A  0.213
8. NCI-H647  0.226
9. PC-14  0.337
10. HARA  0.348
11. NCI-H23  0.362
12. LCLC-97TM1  0.366
13. NCI-H661  0.402
14. NCI-H2009  0.466
15. LXF-289  0.487
16. NCI-H1734  0.523
17. NCI-H1437  0.528
18. BEN  0.54
19. SW 1573  0.546
20. HCC-78  0.565
21. HCC-15  0.605
22. CAL-12T  0.617
23. NCI-H322M  0.655
24. NCI-H1944  0.655
25. NCI-H2347  0.778
26. NCI-H1355  0.785
27. NCI-H1792  0.788
28. NCI-H3122  0.854
29. A-427  0.908
30. NCI-H1755  0.972
31. 201T  0.981
32. EPLC-272H  1.02
33. NCI-H1915  1.04

Compound: O=C(Nc1cc(C(F)(F)F)cc(C(F)(F)F)c1)c1cc(Cl)ccc1O [IMD-0354] + COc1cccc2cc(-c3nc([C@H]4CC[C@H](C(=O)O)CC4)n4ncnc(N)c34)[nH]c12 [OSI-027] (partner 0.5 µM)
Assay: as above
Conditions: first compound 0.04 µM
Method in brief: as §1

In order of rising relative viability:
1. BEN  0.306
2. HCC-78  0.321
3. LU99A  0.351
4. LCLC-97TM1  0.519
5. HARA  0.576
6. NCI-H322M  0.612
7. NCI-H2009  0.703
